According to patent publication US10738281B2, “Reprogramming cells” (The Scripps Research Institute, priority 2010, dated 2020):

Experiments:
[1] = test system: Human Umbilical Vein Endothelial Cells (HUVECs); experiment: Reprogramming of four factor-transduced HUVECs using metabolism modulating compounds; details: four factor (Klf, Sox, Myc, Oct)-transduced HUVECs, 20,000 cells per well, three weeks; DNP 1 μM, NOG 1 μM, QC 1 μM, OA 10 μM, F2,6P 10 mM
Method: (§1) Four factor (Klf, Sox, Myc, and Oct)-transduced HUVECs were seeded at a density of 20,000 transduced cells per well, treated with metabolism modulating compounds for three weeks and TRA-1-81 positive colonies were counted. F2,6P, 10 mM Fructose 2,6-bisphosphate; F6P, 10 mM Fructose 6-phosphate; 6-AN, 10 μM 6-aminonicotinamide; OA, 10 μM oxalate; DNP, 1 μM 2,4-dinitrophenol; NOG, 1 μM N-oxalylglycine; QC, 1 μM Quercetin; 2-HA, 10 μM 2-Hydroxyglutaric acid; NA, 10 μM nicotinic acid; DMSO was used as a control.

[2] = test system: NHEKs; experiment: Lactate production in the medium as index of glycolysis (Lactate Assay Kit); details: NHEKs treated 8 d with PS48, PS48 and UCN-01, or PS48 and 2-DG
Method: as §1

[3] = test system: Neonatal Human Epidermal Keratinocytes (NHEKs); experiment: Reprogramming of transduced NHEKs to iPSCs, TRA-1-81 positive colonies; details: for reprogramming of NHEKs, TRA-1-81 positive colonies (in words): three factor (Klf, Sox, Oct)-transduced NHEKs, 100,000 cells per well, four weeks, 2-DG 10 mM
Method: The culture was split by Accutase (Millipore) and treated with 1 μM Thiazovivin (Stemgent) in the first day after splitting.

[4] = test system: GLUT1, HK2, PFK1 and LDHA; experiment: Expression of key glycolytic genes after treatment; details: PS48 treatment
Method: as §1

Row | Structure (SMILES) | effect on reprogramming, TRA-1-81 positive colonies (in words) [1] | glycolysis, lactate production in the medium (in words) [2] | reprogramming of NHEKs, TRA-1-81 positive colonies (in words) [3] | also measured
1 | O=C(O)CNC(=O)C(=O)O [N-oxalylglycine] | enhance reprogramming | – | – | –
2 | CN[C@@H]1C[C@H]2O[C@@](C)([C@@H]1OC)n1c3ccccc3c3c4c(c5c6ccccc6n2c5c31)C(=O)N[C@@H]4O [UCN-01] | – | inhibited glycolysis | inhibited reprogramming process | –
3 | O=C(O)/C=C(/CCc1ccc(Cl)cc1)c1ccccc1 [PS48, (Z)-5-(4-Chlorophenyl)-3-phenylpent-2-enoic acid] | – | facilitated/activated a metabolic switch to glycolysis | enhanced reprogramming | expression of key glycolytic genes GLUT1, HK2, PFK1 and LDHA (in words) [4]: up-regulated; enhancement of reprogramming efficiency ([3]; NHEKs transduced with OK (OCT4 + KLF4), treated with 0.5 μM PD0325901 and 0.5 μM A-83-01): about fifteen
4 | O=C(O)C(=O)O [oxalate] | inhibit reprogramming | – | – | –
5 | O=CC[C@@H](O)[C@H](O)[C@H](O)CO [2-Deoxy-D-glucose] | – | inhibited glycolysis | inhibited reprogramming process | –
6 | O=P(O)(O)OC[C@H]1O[C@@](CO)(OP(=O)(O)O)[C@@H](O)[C@@H]1O [Fructose 2,6-bisphosphate] | corresponding consistent effects on reprogramming | – | – | –
7 | O=c1c(O)c(-c2ccc(O)c(O)c2)oc2cc(O)cc(O)c12 [Quercetin, 3,3′,4′,5,7-pentahydroxyflavone] | corresponding consistent effects on reprogramming | – | – | –
8 | CCCC(=O)[O-].[Na+] [NaB, sodium butyrate] | – | – | – | generation of iPSCs under OK condition (in words) ([3]; NHEKs, OCT4 + KLF4, 0.25 mM NaB compared with 0.5 mM VPA): much more reliable and efficient than the previously reported 0.5 mM VPA
9 | O=[N+]([O-])c1ccc(O)c([N+](=O)[O-])c1 [2,4-dinitrophenol] | enhance reprogramming | – | – | –
